Laboratory results as given in patent publication US7060694B2, “High potency dihydroergotamine compositions” (Pozen Inc., priority 1999, dated 2006).

How the values were obtained:
[1] = type: in vivo, human; details: after either treatment (MT 300 sc or DHE 45 im), LLOQ 50 pg/ml
Protocol: The study described above in Example 2 utilizes an incomplete crossover design. This protocol is amended to provide a direct comparison of the tolerance and pharmacokinetics of a 2 mg/ml (2.9 mM) formulation of MT 300 (Formulation A-2) and DHE 45®. The present experiment is a randomized, open-label, two period, […], crossover study comparing subcutaneous administration of 1.2 mg of MT 300 and intramuscular administration of 1 mg of DHE 45®. Plasma dihydroergotamine and the 8-hydroxydihydroergotamine metabolite are measured with an LC/MS/MS method, with a LLOQ of 50 pg/ml for both DHE and 8-OH DHE. Serial blood samples are collected for 72 hours after the dose. Seven of 8 subjects complete this study. One subject withdraws from the study due to difficulty in obtaining the blood samples. The adverse event profile is similar to that observed in the study of Example 2.

[2] = Example 4: overall tolerance profile (adverse events) of subjects administered DHE; type: in vivo, human; details: DHE concentration increased from 1.5 mM to 2.9 mM or more, total quantity of DHE constant
Description: Adverse events occur in 20 of 33 subjects treated with MT 300 and 8 of 13 subjects treated with DHE 45®.

[3] = Animal studies of DHE absorption with caffeine; type: in vivo; details: caffeine at 10:1 weight ratio relative to DHE
[4] = DHE given subcutaneously at 1.5 mM; cited from earlier work
[5] = Solubility of DHE in aqueous formulations with caffeine

Row | Compound | plasma levels of 8-OH DHE metabolite [1] | side effects, particularly nausea [2] | drug absorption characteristics [3] | nausea in treated patients [4] [%] | solubility of DHE in aqueous formulations [5]
1 | 8-hydroxydihydroergotamine [8-OH DHE] | No significant levels | – | – | – | –
2 | CN1C[C@H](C(=O)N[C@]2(C)O[C@@]3(O)[C@@H]4CCCN4C(=O)[C@H](Cc4ccccc4)N3C2=O)C[C@@H]2c3cccc4[nH]cc(c34)C[C@H]21 [DHE, Dihydroergotamine] | – | reduced | improves drug absorption characteristics | ~16 | greatly increases the solubility
